Experimental data taken from patent US20070059242A1, “METHODS TO IDENTIFY THERAPEUTIC AGENTS” (priority 2005, published 2007).

Tests used:
[1] = Loss of extractable 5a from stored plasma; conditions: preliminary investigations
Method: Plasma samples were obtained from patients (n=8) who were scheduled to undergo carotid endarterectomy within 24 h. […] Control plasma samples were obtained from random patients (n=15) attending a general medical clinic and were analyzed 7 days after collection. In a typical procedure, plasma in EDTA (1 ml) was washed with dichloromethane (DCM, 3×1 mL). The combined organic fractions were evaporated in vacuo. The residue was dissolved in methanol (0.9 mL) and a solution of 2,4-dinitrophenyl hydrazine (100 μL, 0.01 M, Lancaster) and 1N HCl in ethanol was added. Nitrogen was bubbled through the solution for 5 min and then the solution was stirred for 2 h. The resultant solution was filtered through a 0.22 μm filter and the filtrate was analyzed by the HPLC assay vide supra.

[2] = Aldolization of ketoaldehyde 4a with amino acids (1H NMR); assay type: physicochemical
Method: Aldolization of ketoaldehyde 4a with amino acids. […] To this solution was added 1 equivalent of either: a) L-proline, b) glycine, c) L-lysine hydrochloride or d) L-lysine ethyl ester dihydrochloride. At time points the samples were analyzed by ^1H NMR.

CC(C)CCC[C@@H](C)[C@H]1CCC2C3C(CC[C@@]21C)[C@@]1(C)CC[C@H](O)C[C@@]1(O)[C@@H]3C=O (stereo partly drawn) [5a, 3β-Hydroxy-5β-hydroxy-B-norcholestane-6β-carboxaldehyde]
decrease of amount that can be extracted from plasma [1]: about 5 % per day

CC(C)CCC[C@@H](C)[C@H]1CCC2C(CC=O)C([C@@]3(C)CC[C@H](O)CC3=O)CC[C@@]21C (stereo partly drawn) [4a, 3β-Hydroxy-5-oxo-5,6-secocholestan-6-al]
aldolization of 4a ([2]; DMSO-d6 (800 μl) and D2O (80 μl) alone): no aldolization
conversion of 4a into 5a ([2]; Gly, 24 h): complete conversion
conversion of 4a into 5a ([2]; L-Lys(OEt).2HCl, 100 h): 62%
conversion of 4a into 5a ([2]; L-Lys.HCl, 24 h): complete conversion
conversion of 4a into 5a ([2]; L-Pro, 2 h): complete conversion
